Laboratory results as given in US20140371262A1, “PREVENTIVE AND/OR THERAPEUTIC AGENT FOR THROMBOEMBOLISM IN THROMBOEMBOLISM PATIENT WITH SEVERE RENAL IMPAIRMENT” (Daiichi Sankyo Company, Limited, priority 2011, published 2014).

Tests used:
[1] = tested on: NVAF patients; assay: Late phase-II trial targeting NVAF patient in Japan (thromboembolic and bleeding events, 12 weeks); assay type: in vivo, human; settings: warfarin group (PT-INR adjusted to 2.0 to 3.0; 1.6 to 2.6 for 70 years or older), 12 weeks
[2] = tested on: patients with moderate to-high-risk atrial fibrillation; assay: ENGAGE-AF TIMI-48 phase 3 study of edoxaban versus warfarin in atrial fibrillation
[3] = subgroup whose CLCR had become <30 mL/min during the trial, edoxaban 15 mg (N = 349), warfarin dose adjusted (N = 367)
[4] = warfarin, dose-adjusted to INR 2.0 to 3.0

In the case of `CC(=O)CC(c1ccccc1)c1c(O)c2ccccc2oc1=O` (stereo not shown) [warfarin, reference compound], the “Incidence of bleeding events (major, clinically relevant non-major and minor bleeding in total)” value [1] is reported as 20.0%, the “ACM (all cause mortality): # of events” value [2, 3] is reported as 13 and the “Disabling Stroke: # of events” value [2, 3] is reported as 3. For the same compound, the “Disabling Stroke: Event Rate” value [2, 3] was 0.48 %/yr, the “Fatal Bleed: # of events” value [2, 3] was 2 and the “Fatal Bleed: Event Rate” value [2, 3] was 0.32 %/yr. The “Fatal SEE: # of events” value [2, 3] was 0, the “Fatal SEE: Event Rate” value [2, 3] was 0.00 %/yr and the “Fatal Stroke: # of events” value [2, 3] was 3. For the same compound, the “Fatal Stroke: Event Rate” value [2, 3] was 0.48 %/yr, the “First Disabling or Fatal Stroke, Fatal SEE, LT or Fatal Bleed, or ACM: # of events” value [2, 3] was 21 and the “First Disabling or Fatal Stroke, Fatal SEE, LT or Fatal Bleed, or ACM: Event Rate” value [2, 3] was 3.36 %/yr. For the same compound, the “First Stroke, SEE or TIA: # of events” value [2, 3] was 14, the “First Stroke, SEE or TIA: Event Rate” value [2, 3] was 2.26 %/yr and the “First Stroke, SEE, Major Bleed, or ACM: # of events” value [2, 3] was 49. The “First Stroke, SEE, Major Bleed, or ACM: Event Rate” value [2, 3] was 8.04 %/yr, the “LT Bleed (life threatening): # of events” value [2, 3] was 5 and the “LT Bleed (life threatening): Event Rate” value [2, 3] was 0.80 %/yr. The “Annualized rate of death from cardiovascular causes” value [2, 4] was 3.17%, the “Annualized rate of major bleeding” value [2, 4] was 3.43% and the “Annualized rate of the primary end point (stroke or systemic embolism) during treatment” value [2, 4] was 1.50%. The “Rate of the key secondary end point (composite of stroke, systemic embolism, or death from cardiovascular causes)” value [2, 4] was 4.43%.
